Patent US9079919B2 (HOFFMANN-LA ROCHE INC., priority 2011, dated 2015)
Structures can show the parent of a compound that is named as a salt.

Tests used:
Type in all cases: cell-based
[1] = target: T1, BACE1 (Homo sapiens, UniProt P56817); assay: Cellular Aβ-lowering assay b) (Abeta 40 AlphaLISA Assay); conditions: cellular assay b): HEK293 APP cells, Aβ40 in supernatant by AlphaLISA after 18-20 hrs; read-out: BACE1 cell act. Aβ40 IC50
T1 construct: Human HEK293 cells which are stably transfected with a vector expressing a cDNA of the human APP wt gene (APP695); endogenous in cells; host or cells: HEK293 cells stably transfected with human APP695 (wt)
T1 sequence (P56817 46-501): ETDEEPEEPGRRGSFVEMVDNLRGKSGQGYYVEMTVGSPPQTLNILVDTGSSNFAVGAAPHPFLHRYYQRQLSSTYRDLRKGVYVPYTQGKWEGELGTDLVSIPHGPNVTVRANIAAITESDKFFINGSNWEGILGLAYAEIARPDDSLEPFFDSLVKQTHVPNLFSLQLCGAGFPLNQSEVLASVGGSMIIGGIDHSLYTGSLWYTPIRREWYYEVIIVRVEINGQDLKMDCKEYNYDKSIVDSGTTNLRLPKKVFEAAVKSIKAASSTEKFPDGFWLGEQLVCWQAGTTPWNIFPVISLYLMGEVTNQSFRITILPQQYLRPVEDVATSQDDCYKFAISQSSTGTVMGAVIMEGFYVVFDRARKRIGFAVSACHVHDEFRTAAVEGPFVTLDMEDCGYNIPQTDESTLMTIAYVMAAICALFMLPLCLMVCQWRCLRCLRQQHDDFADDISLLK
Method: b) Alternatively, the Abeta 40 AlphaLISA Assay can be used. The HEK293 APP cells were seeded in 96 well Microtiter plates in cell culture medium (Iscove's, plus 10% (v/v) fetal bovine serum, penicillin/streptomycin) to about 80% confluency and the compounds were added at a 3× concentration in 1/3 volume of culture medium (final DMSO concentration was kept at 1% v/v). After 18-20 hrs incubation at 37° C. and 5% CO2 in a humidified incubator, the culture supernatants were harvested for the determination of Aβ 40 concentrations using Perkin-Elmer Human Amyloid beta 1-40 (high specificity) Kit (Cat#AL275C).
In a Perkin-Elmer White Optiplate-384 (Cat#6007290), 2 ul culture supernatants were combined with 2 μl of a 10× AlphaLISA Anti-hAβ Acceptor beads+Biotinylated Antibody Anti-Aβ 1-40 Mix (50 μg/mL/5 nM). After 1 hour room temperature incubation, 16 μl of a 1.25× preparation of Streptavidin (SA) Donor beads (25 μg/mL) were added and incubated for 30 minutes in the Dark. Light Emission at 615 nm was then recorded using EnVision-Alpha Reader. Levels of Aβ 40 in the culture supernatants were calculated as percentage of maximum signal (cells treated with 1% DMSO without inhibitor). The IC50 values were calculated using the Excel XLfit software.

[2] = target: T1, BACE1; assay: Cellular Aβ-lowering assay a) (Aβ40 ELISA); conditions: cellular assay a): HEK293 cells expressing human APP695, Aβ40 in supernatant by ELISA after 18-20 hrs; read-out: BACE1 cell act. Aβ40 IC50
Method: a) Human HEK293 cells which are stably transfected with a vector expressing a cDNA of the human APP wt gene (APP695) were used to assess the potency of the compounds in a cellular assay. The cells were seeded in 96-well microtiter plates in cell culture medium (Iscove, plus 10% (v/v) fetal bovine serum, glutamine, penicillin/streptomycin) to about 80% confluence and the compounds were added at a 10× concentration in 1/10 volume of medium without FCS containing 8% DMSO (final concentration of DMSO was kept at 0.8% v/v). After 18-20 hrs incubation at 37° C. and 5% CO2 in a humidified incubator the culture supernatant was harvested for the determination of Aβ40 concentrations. 96 well ELISA plates (e.g., Nunc MaxiSorb) were coated with monoclonal antibody which specifically recognize the C-terminal end of Aβ40 (Brockhaus et al., NeuroReport 9, 1481-1486; 1998). After blocking of non-specific binding sites with e.g. 1% BSA and washing, the culture supernatants were added in suitable dilutions together with a horseradish peroxidase-coupled Aβ detection antibody (e.g., antibody 4G8, Senetek, Maryland Heights, Mo.) and incubated for 5 to 7 hrs. Subsequently the wells of the microtiter plate were washed extensively with Tris-buffered saline containing 0.05% Tween 20 and the assay was developed with tetramethylbenzidine/H2O2 in citric acid buffer. After stopping the reaction with one volume of 1N H2SO4 the reaction was measured in an ELISA reader at 450 nm wavelength. The concentrations of Aβ in the culture supernatants were calculated from a standard curve obtained with known amounts of pure Aβ peptide.

[3] = target: T2, BACE2 (Rattus norvegicus, UniProt Q6IE75); assay: Assay for BACE inhibition by measuring cellular TMEM27 cleavage; conditions: INS-TMEM27 cells (INS1e-derived), shed human TMEM27 by ELISA; read-out: BACE2 cell act. IC50
T2 construct: endogenous cellular BACE2 in the Ins1e rat cell line; endogenous in cells; host or cells: INS-TMEM27 (INS1e-derived rat cell line with doxycycline-inducible full-length human TMEM27)
T2 sequence (Q6IE75 63-514): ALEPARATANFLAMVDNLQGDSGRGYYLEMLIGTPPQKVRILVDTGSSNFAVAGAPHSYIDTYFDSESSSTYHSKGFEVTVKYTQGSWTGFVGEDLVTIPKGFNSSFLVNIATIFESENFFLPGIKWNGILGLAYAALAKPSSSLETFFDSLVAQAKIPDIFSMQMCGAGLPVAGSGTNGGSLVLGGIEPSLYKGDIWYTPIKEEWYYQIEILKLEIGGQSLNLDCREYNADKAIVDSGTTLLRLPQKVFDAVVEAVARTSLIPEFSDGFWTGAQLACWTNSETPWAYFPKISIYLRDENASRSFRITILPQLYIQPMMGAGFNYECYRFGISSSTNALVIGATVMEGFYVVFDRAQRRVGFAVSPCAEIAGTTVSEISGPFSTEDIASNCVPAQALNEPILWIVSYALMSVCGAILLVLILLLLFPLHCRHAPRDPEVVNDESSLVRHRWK
Description: The assay uses the principle of inhibition of human TMEM27 cleavage by endogenous cellular BACE2 in the Ins1e rat cell line and shedding from the cell surface into the culture medium, followed by detection in an ELISA assay. Inhibition of BACE2 prevents the cleavage and shedding in a dose-dependent manner.
The stable cell line “INS-TMEM27” represents an INS1e-derived cell line with inducible expression (using the TetOn system) of full-length hTMEM27 in a doxycycline-dependent manner. The cells are cultured throughout the experiment in RPMI1640+ Glutamax (Invitrogen) Penicillin/Streptomycin, 10% Fetal bovine serum, […], […], 100 micrograms/ml G418 and 100 microgram/ml hygromycin and are grown inadherent culture at 37° C. in a standard CO2 cell culture incubator.
INS-TMEM27 cells are seeded in 96-well plates. After 2 days in culture, BACE2 inhibitor is added in a range of concentrations as required by the assay and after a further two hours, doxycycline is added to a final concentration of 500 ng/ml. The cells are incubated for a further 46 hours and the supernatant harvested for detection of shed TMEM27.
An ELISA assay (using a pair of mouse anti-human-TMEM27 antibodies, raised against the extracellular domain of TMEM27) is used for detection of TMEM27 in the culture medium. An EC50 for BACE2 inhibition is calculated using the ELISA readout for each inhibitor concentration with standard curve-fitting software such as XLFit for the Excel spreadsheet program.

SMILES	IC50 [1]	IC50 [2]	IC50 [3]
N#Cc1cncc(-c2ccc3c(c2)[C@@]2(CC3)N=C(N)OCC2(F)F)c1 [Example 11, (R)-5-(2′-Amino-5′,5′-difluoro-2,3,5′,6′-tetrahydrospiro[indene-1,4′-[1,3]oxazine]-6-yl)nicotinonitrile]	3.38 µM	–	–
NC1=N[C@@]2(C[C@@]3(CCCOC3)Oc3ccc(-c4cncc(Cl)c4)cc32)C(F)(F)CO1 [Example 29, (2′R,4R)-6′-(5-Chloropyridin-3-yl)-5,5-difluoro-5,5″,6,6″-tetrahydro-4″H-dispiro[1,3-oxazine-4,4′-chromene-2′,3″-pyran]-2-amine formate]	4.43 µM	–	–
N#Cc1cccc(-c2ccc3c(c2)[C@@]2(C[C@@]4(CCCOC4)O3)N=C(N)OCC2(F)F)c1 [Example 30, 3-[(2′R,4R)-2-Amino-5,5-difluoro-5,5″,6,6″-tetrahydro-4″H-dispiro[1,3-oxazine-4,4′-chromene-2′,3″-pyran]-6′-yl]benzonitrile formate]	6.58 µM	–	–
NC1=N[C@@]2(C[C@]3(CCCOC3)Oc3ccc(-c4cncc(Cl)c4)cc32)C(F)(F)CO1 [Example 31, (2′S,4R)-6′-(5-Chloropyridin-3-yl)-5,5-difluoro-5,5″,6,6″-tetrahydro-4″H-dispiro[1,3-oxazine-4,4′-chromene-2′,3″-pyran]-2-amine formate]	9 µM	–	–
N#Cc1ccc(C(=O)Nc2ccc3c(c2)[C@@]2(CCS3)N=C(N)OCC2(F)F)nc1 [Example 43, (R)—N-(2-Amino-5,5-difluoro-5,6-dihydrospiro[[1,3]oxazine-4,4′-thiochroman]-6′-yl)-5-cyanopicolinamide]	–	0.01 µM	0.148 µM
N#Cc1ccc(C(=O)Nc2ccc3c(c2)[C@@]2(C[C@@]4(CCCOC4)O3)N=C(N)OCC2(F)F)nc1 [Example 44, N-[(2′R,4R)-2-Amino-5,5-difluoro-5,5″,6,6″-tetrahydro-4″H-dispiro[1,3-oxazine-4,4′-chromene-2′,3″-pyran]-6′-yl]-5-cyanopyridine-2-carboxamide]	5.17 µM	–	–
NC1=N[C@@]2(CCOc3ccc(NC(=O)c4ncc(Cl)cc4Cl)cc32)C(F)(F)COC1 [Example 51, (R)—N-(3′-Amino-6′,6′-difluoro-6′,7′-dihydro-2′H-spiro[chroman-4,5′-[1,4]oxazepine]-6-yl)-3,5-dichloropicolinamido]	–	1.69 µM	5.87 µM
NC1=N[C@@]2(CCOc3ccc(-c4cc(Cl)cc(Cl)c4)cc32)C(F)(F)COC1 [Example 55, (R)-6-(3,5-Dichlorophenyl)-6′,6′-difluoro-6′,7′-dihydro-2′H-spiro[chroman-4,5′-[1,4]oxazepin]-3′-amine]	–	3.83 µM	10.5 µM
